From the NIST ThermoML archive (doi:10.1016/j.jct.2017.01.016)
± gives the expanded uncertainty stated by the source.

Test: xn = mol fraction of the nth substance listed
Conditions: 101 kPa, Liquid; for viscosity: Capillary tube (Ostwald / Ubbelohde) method; for speed of sound: Frequency=3 MHz, Linear variable-path acoustic interferometer

In the case of `Cc1cc(C)cc(C)c1` [1,3,5-trimethylbenzene] + C1COCCO1, the viscosity (293.15 K, x2 = 0) is reported as 0.7056 ± 0.015 mPa·s, the viscosity (293.15 K, x2 = 0.0696) is reported as 0.7332 ± 0.015 mPa·s and the viscosity (293.15 K, x2 = 0.1408) is reported as 0.7648 ± 0.016 mPa·s. It also gave a viscosity (293.15 K, x2 = 0.2098) of 0.7974 ± 0.017 mPa·s, a viscosity (293.15 K, x2 = 0.28) of 0.8326 ± 0.017 mPa·s and a viscosity (293.15 K, x2 = 0.3558) of 0.8728 ± 0.018 mPa·s. The viscosity (293.15 K, x2 = 0.4276) was 0.9131 ± 0.019 mPa·s, the viscosity (293.15 K, x2 = 0.5066) was 0.9597 ± 0.02 mPa·s and the viscosity (293.15 K, x2 = 0.5801) was 1.005 ± 0.021 mPa·s. The viscosity (293.15 K, x2 = 0.6548) was 1.054 ± 0.022 mPa·s, the viscosity (293.15 K, x2 = 0.7227) was 1.099 ± 0.023 mPa·s and the viscosity (293.15 K, x2 = 0.7936) was 1.149 ± 0.024 mPa·s. The viscosity (293.15 K, x2 = 0.8663) was 1.202 ± 0.025 mPa·s, the viscosity (293.15 K, x2 = 0.9319) was 1.252 ± 0.026 mPa·s and the speed of sound (293.15 K, x2 = 0) was 1360.4 ± 1.7 m/s. The speed of sound (293.15 K, x2 = 0.0696) was 1354.2 ± 1.7 m/s, the speed of sound (293.15 K, x2 = 0.1408) was 1348.2 ± 1.7 m/s and the speed of sound (293.15 K, x2 = 0.2098) was 1342.8 ± 1.7 m/s. It also gave a speed of sound (293.15 K, x2 = 0.28) of 1337.8 ± 1.7 m/s, a speed of sound (293.15 K, x2 = 0.3558) of 1333.1 ± 1.7 m/s and a speed of sound (293.15 K, x2 = 0.4276) of 1329.3 ± 1.7 m/s. For the same molecule, the speed of sound (293.15 K, x2 = 0.5066) was 1326.5 ± 1.7 m/s, the speed of sound (293.15 K, x2 = 0.5801) was 1325 ± 1.7 m/s and the speed of sound (293.15 K, x2 = 0.6548) was 1325.4 ± 1.7 m/s. It also gave a speed of sound (293.15 K, x2 = 0.7227) of 1327.5 ± 1.7 m/s, a speed of sound (293.15 K, x2 = 0.7936) of 1332 ± 1.7 m/s and a speed of sound (293.15 K, x2 = 0.8663) of 1340 ± 1.7 m/s. The speed of sound (293.15 K, x2 = 0.9319) was 1351 ± 1.7 m/s, the viscosity (298.15 K, x2 = 0) was 0.6592 ± 0.014 mPa·s and the viscosity (298.15 K, x2 = 0.0696) was 0.6835 ± 0.014 mPa·s. For the same molecule, the viscosity (298.15 K, x2 = 0.1408) was 0.7112 ± 0.015 mPa·s, the viscosity (298.15 K, x2 = 0.2098) was 0.7398 ± 0.015 mPa·s and the viscosity (298.15 K, x2 = 0.28) was 0.7712 ± 0.016 mPa·s. For the same molecule, the viscosity (298.15 K, x2 = 0.3558) was 0.8066 ± 0.017 mPa·s, the viscosity (298.15 K, x2 = 0.4276) was 0.8422 ± 0.018 mPa·s and the viscosity (298.15 K, x2 = 0.5066) was 0.8838 ± 0.018 mPa·s. It also gave a viscosity (298.15 K, x2 = 0.5801) of 0.9244 ± 0.019 mPa·s, a viscosity (298.15 K, x2 = 0.6548) of 0.9678 ± 0.02 mPa·s and a viscosity (298.15 K, x2 = 0.7227) of 1.009 ± 0.021 mPa·s. For the same molecule, the viscosity (298.15 K, x2 = 0.7936) was 1.053 ± 0.022 mPa·s, the viscosity (298.15 K, x2 = 0.8663) was 1.101 ± 0.023 mPa·s and the viscosity (298.15 K, x2 = 0.9319) was 1.146 ± 0.024 mPa·s. For the same molecule, the speed of sound (298.15 K, x2 = 0) was 1339.8 ± 1.7 m/s, the speed of sound (298.15 K, x2 = 0.0696) was 1333.4 ± 1.7 m/s and the speed of sound (298.15 K, x2 = 0.1408) was 1327.5 ± 1.7 m/s. For the same molecule, the speed of sound (298.15 K, x2 = 0.2098) was 1322.1 ± 1.7 m/s, the speed of sound (298.15 K, x2 = 0.28) was 1317.1 ± 1.7 m/s and the speed of sound (298.15 K, x2 = 0.3558) was 1312.5 ± 1.7 m/s. The speed of sound (298.15 K, x2 = 0.4276) was 1308.9 ± 1.7 m/s, the speed of sound (298.15 K, x2 = 0.5066) was 1306 ± 1.7 m/s and the speed of sound (298.15 K, x2 = 0.5801) was 1304.5 ± 1.7 m/s. The speed of sound (298.15 K, x2 = 0.6548) was 1304.7 ± 1.7 m/s, the speed of sound (298.15 K, x2 = 0.7227) was 1306.5 ± 1.7 m/s and the speed of sound (298.15 K, x2 = 0.7936) was 1310.8 ± 1.7 m/s. It also gave a speed of sound (298.15 K, x2 = 0.8663) of 1318.5 ± 1.7 m/s, a speed of sound (298.15 K, x2 = 0.9319) of 1329 ± 1.7 m/s and a viscosity (303.15 K, x2 = 0) of 0.6188 ± 0.013 mPa·s. It also gave a viscosity (303.15 K, x2 = 0.0696) of 0.6405 ± 0.013 mPa·s, a viscosity (303.15 K, x2 = 0.1408) of 0.6646 ± 0.014 mPa·s and a viscosity (303.15 K, x2 = 0.2098) of 0.6896 ± 0.015 mPa·s. The viscosity (303.15 K, x2 = 0.28) was 0.7168 ± 0.015 mPa·s, the viscosity (303.15 K, x2 = 0.3558) was 0.7483 ± 0.016 mPa·s and the viscosity (303.15 K, x2 = 0.4276) was 0.78 ± 0.016 mPa·s. The viscosity (303.15 K, x2 = 0.5066) was 0.8167 ± 0.017 mPa·s, the viscosity (303.15 K, x2 = 0.5801) was 0.8532 ± 0.018 mPa·s and the viscosity (303.15 K, x2 = 0.6548) was 0.8918 ± 0.019 mPa·s. The viscosity (303.15 K, x2 = 0.7227) was 0.9287 ± 0.019 mPa·s, the viscosity (303.15 K, x2 = 0.7936) was 0.9688 ± 0.02 mPa·s and the viscosity (303.15 K, x2 = 0.8663) was 1.012 ± 0.021 mPa·s. For the same molecule, the viscosity (303.15 K, x2 = 0.9319) was 1.052 ± 0.022 mPa·s, the speed of sound (303.15 K, x2 = 0) was 1319.6 ± 1.7 m/s and the speed of sound (303.15 K, x2 = 0.0696) was 1313.2 ± 1.7 m/s. For the same molecule, the speed of sound (303.15 K, x2 = 0.1408) was 1307.3 ± 1.7 m/s, the speed of sound (303.15 K, x2 = 0.2098) was 1301.9 ± 1.7 m/s and the speed of sound (303.15 K, x2 = 0.28) was 1297.1 ± 1.7 m/s. It also gave a speed of sound (303.15 K, x2 = 0.3558) of 1292.5 ± 1.7 m/s, a speed of sound (303.15 K, x2 = 0.4276) of 1288.9 ± 1.7 m/s and a speed of sound (303.15 K, x2 = 0.5066) of 1286 ± 1.7 m/s. The speed of sound (303.15 K, x2 = 0.5801) was 1284.5 ± 1.7 m/s, the speed of sound (303.15 K, x2 = 0.6548) was 1284.6 ± 1.7 m/s and the speed of sound (303.15 K, x2 = 0.7227) was 1286.4 ± 1.7 m/s. For the same molecule, the speed of sound (303.15 K, x2 = 0.7936) was 1290.3 ± 1.7 m/s, the speed of sound (303.15 K, x2 = 0.8663) was 1297.6 ± 1.7 m/s and the speed of sound (303.15 K, x2 = 0.9319) was 1307.8 ± 1.7 m/s.
